We go through 11 compounds from US20220354949A1, “NOVEL COMPOUNDS” (XENIOPRO GmbH, priority 2018, published 2022).

Holding throughout (assay type): cell-based
For assay [1], the system named is TANOUE cells (human B cell leukemia cells). Nature of the assay: Proliferation assay (alamarBlue) with TANOUE cells. As to conditions: Homo sapiens, B-cell, compound at 20 μM, Table 63 (novel compounds), read-out: Activity Range: weighted arithmetic mean (AVEw) of normalized fluorescence intensity relative to DMSO basis level 1.0. The source says: (§1) The antiproliferative activities of compounds falling under formula (Ia), (Ib) and (Ic), respectively, were investigated on cells or cell lines originating from a disorder of the haematopoietic system, including the myeloid cell compartment and the lymphoid cell compartment (T-cells and B-cells), the neuroendocrine system, the cervix, the breast, the ovaries, the lung, the gastrointestinal tract, and the mucosal epithelium, as well as from the skin epithelium and from the muscle. To this end, HL-60 cells, NB-4 cells, HH cells, RPMI-8402 cells, TANOUE cells, TT cells, HeLa cells, MDA-MB-231 cells, FU-OV-1 cells, LOU-NH91 cells, 23132/87 cells, CAL-27 cells, BHY cells, SCC-25 cells, A-431 cells, human primary epidermal keratinocytes (HPEK), and C2C12 cells were seeded into 96-well plates suitable for fluorescence assays (CORNING #3598) at following initial cell numbers: 1000 cells per well for HL-60; 1000 cells per well for NB-4; 5000 cells per well for HH; 5000 cells per well for RPMI-8402; 1500 cells per well for TANOUE; 9000 cells per well for TT; 2000 cells per well for HeLa; 3000 cells per well for MDA-MB-231; 3000 cells per well for FU-OV-1; 4000 cells per well for LOU-NH91; 2000 cells per well for 23132/87; 2000 cells per well for CAL-27; 1500 cells per well for BHY; 1500 cells per well for SCC-25; 700 cells per well for A-431; 1000 cells per well for HPEK; 500 cells per well for C2C12. The cells were treated with compounds at indicated final concentrations (diluted from the 1000× stock-solutions in DMSO to a final DMSO concentration of 0.1% v/v in H2O (Water For Injection, WFI, Fisherscientific #10378939)) or with the empty carrier DMSO at 0.1% v/v as control for 5 days. At day 5 after starting the treatments the cells were subjected to the alamarBlue® Proliferation Assay (Bio-Rad Serotec GmbH, BUF012B) according to the protocol of the manufacturer. The readout was taken with a multi-well plate-reader in the fluorescence mode with applying a filter for excitation at 560 nm (band width 10 nm) and for emission at 590 nm (band width 10 nm). Control treatments for growth inhibition with commercial compounds such as Methotrexate (MTREX) and Resveratrol (RES) were included on every plate. Some of the test compounds of the present invention were obtained and applied as their salts. According cases are indicated in the column “Specification” in Table 55 to Table 92 and by their sum formula in Table 93.
(§2) The assays were performed in duplicate or more replicates of independent single experiments each containing a six-fold replicate for every condition. For every individual plate, the measured fluorescence intensity values of the conditions with compound treatment were normalized against the corresponding equally weighted arithmetic mean of the fluorescence intensity values of the six DMSO treated control wells in order to obtain the relative values to a baseline level of 1.0.
(§3) Two independent outlier analyses were performed according to the methods by Peirce and Chauvenet (Ross, Journal of Engineering Technology 2003, 1-12). Outliers confirmed by at least one of the methods were excluded from the calculations but not more than one value out of six per compound within a single experiment. The weighted arithmetic mean (here abbreviated as AVEw) for each compound was calculated from the normalized values over all independent replicates of the single experiments comprising the six replicates each. The corresponding standard deviation for the weighted arithmetic mean was calculated according to the method described by Bronstein et al. (Bronstein, Semendjajew, Musiol, Müihlig, Taschenbuch der Mathematik, 5th edition 2001 (German), publisher: Verlag Harri Deutsch, Frankfurt am Main and Thun) and was combined with the Gauß' error propagation associated with the performed calculation for the normalization. The resulting standard deviation is herein referred to as “combined standard deviation”. […]
On the technique in general: Resazurin is reduced to fluorescent resorufin, in cell work by metabolically active cells.

Assay [2] deals with MDA-MB-231 cells (human breast carcinoma cells). The experiment in a line: Proliferation assay (alamarBlue) with MDA-MB-231 cells. As to conditions: Homo sapiens, compound at 20 μM, Table 69 (novel compounds), read-out: Activity Range: weighted arithmetic mean (AVEw) of normalized fluorescence intensity relative to DMSO basis level 1.0.
From the text: as §1, §2, §3

Assay [3] relates to Notch signaling (human Notch1 receptor, hNotch1ΔE, CSL luciferase reporter in HeLa cells). The experiment in a line: Notch reporter assay (dual luciferase, HeLa cells transfected with hNotch1ΔE). To be noted: compounds and controls at 10 μM. The source says:
The activation level of Notch signaling can be quantified in vitro reliably by measuring the expression levels of Notch specific target genes. This can be accomplished by the quantification of corresponding mRNA or protein of a particular Notch target gene. Alternatively, cells can be genetically modified to carry a luciferase gene as an artificial Notch target gene, which is expressed in dependence of Notch activity. In this setting, Notch signaling levels can be quantified by measuring the luciferase-derived bioluminescence values.
An according Notch-reporter assay, i.e. a luciferase-based luminescence readout, was used here to quantify the ability of the claimed compounds to augment Notch signaling in a cellular system. […] After 24 hours of transfection, the transfected cells were carefully detached from the dish using 0.5 mM EDTA in PBS and seeded into 96-well plates suitable for luminescence readouts (CORNING, #3610) at 10′000 cells per well. […] Directly after the lysis, first the Firefly and then the Renilla luciferase values were measured consecutively from the same well with a luminescence reader immediately after applying 15 μL per well each of the corresponding enzyme substrates needed to create the luminescence signals (Promega, Dual-Luciferase® Reporter Assay System, #E1910). […]

Assay [4] concerns HH cells (human cutaneous T-cell lymphoma cells). The experiment in a line: Proliferation assay (alamarBlue) with HH cells. To be noted: 20 μM, relative to DMSO basis level 1.0, Table 60 (compounds disclosed in PCT/EP2018/054686).
From the text: as §1, §2, §3

As for `CN(O)C(c1ccc(Oc2ccc(C34CC5CC(CC(C5)C3)C4)cc2)cc1)C(F)(F)F` (stereo not shown) [XPW-0182, N-(1-(4-(4-((3r,5r,7r)-adamantan-1-yl)phenoxy)phenyl)-2,2,2-trifluoroethyl)-N-methyl hydroxylamine], the activity at 20 µM in assay [1] and in assay [2] was 40 to 60% in each case.
For `NC1(c2ccc(Oc3ccc(C45CC6CC(CC(C6)C4)C5)cc3)nc2)COC1` [XPW-3052], the results for the activity at 20 µM in assay [1] and in assay [2] were 70 to 80% and 60 to 70%, respectively.
On to `O=C(c1ccc(Oc2ccc(C3CCCCC3)cc2)nc1)N1CCOCC1` [XPW-2890, (6-(4-cyclohexylphenoxy)pyridin-3-yl)(morpholino)methanone], for which the activity at 20 µM in assay [1] is 70 to 80%; in assay [2], 40 to 60%.
For `CN(C)C(C#N)c1ccc(Oc2ccc(C3CCCCC3)cc2)cc1` (stereo not shown) [XPW-0314, 2-(4-(4-cyclohexylphenoxy)phenyl)-2-(dimethylamino)acetonitrile], in assay [1], the activity at 20 µM fell in the range of 40 to 60%. Further, the “Activity Range: weighted arithmetic mean (AVEw) of double-normalized Notch-reporter luminescence, relative to DMSO basis level of 1.0” value in assay [3] was 2.0 ≤ AVEw.
`CC(C)(C)[S+]([O-])NC(c1ccc(Oc2ccc(C34CC5CC(CC(C5)C3)C4)cc2)cc1)C(F)(F)F` (stereo not shown) [XPW-0902, N-(1-(4-(4-((3r,5r,7r)-adamantan-1-yl)phenoxy)phenyl)-2,2,2-trifluoroethyl)-2-methylpropane-2-sulfinamide]: the activity at 20 µM in assay [1] and in assay [2] was 0 to 20% throughout.
For `CN(C(c1ccc(Oc2ccc(C34CC5CC(CC(C5)C3)C4)cc2)cc1)C(F)(F)F)[S+]([O-])C(C)(C)C` (stereo not shown) [XPW-4642, N-(1-(4-(4-((3r,5r,7r)-adamantan-1-yl)phenoxy)phenyl)-2,2,2-trifluoroethyl)-N,2-dimethylpropane-2-sulfinamide], the activity at 20 µM in assay [2] lay within 60 to 70%.
For `NS(=O)(=O)C#Cc1ccccc1` [PES], the “Activity Range: weighted arithmetic mean (AVEw) of normalized fluorescence intensity, proliferation assay with HH cells” value in assay [4] stood at 0.6 ± 0.1.
Turning to `C[C@H](NC(=O)Cc1cc(F)cc(F)c1)C(=O)N[C@H](C(=O)OC(C)(C)C)c1ccccc1` [DAPT], the “Activity Range: weighted arithmetic mean (AVEw) of double-normalized Notch-reporter luminescence, relative to DMSO basis level of 1.0” value in assay [3] is 0.1 ± 0.0.
`N#CN=C(N)c1ccc(Oc2ccc(C3CCCCC3)cc2)nc1` [XPW-0832, N′-cyano-6-(4-cyclohexylphenoxy)nicotinimidamide]: the activity at 20 µM in assay [1] and in assay [2] was 70 to 80% throughout.
`CN(C)C(c1ccc(Oc2ccc(C34CC5CC(CC(C5)C3)C4)cc2)cc1)C(F)(F)F` (stereo not shown) [XPW-0042, 1-(4-(4-((3r,5r,7r)-adamantan-1-yl)phenoxy)phenyl)-2,2,2-trifluoro-N,N-dimethylethan-1-amine]: the activity at 20 µM in assay [1] and in assay [2] was 80 to 90% in each case.
With `COCCc1ccc(Oc2ccc(C(=O)N(C)O)cc2)cc1` [XPW-0675, N-hydroxy-4-(4-(2-methoxyethyl)phenoxy)-N-methylbenzamide], the activity at 20 µM in assay [1] and in assay [2] was 40 to 60% throughout.
